Test results published in the NIST ThermoML archive (doi:10.1016/j.jct.2017.07.012).
± gives the expanded uncertainty stated by the source.

Assay: activity coefficient (dimensionless); of the first substance listed, at infinite dilution; xn = mol fraction of the nth substance listed
Settings: 303.15 K; 101.33 kPa; Liquid; Chromatography; x1 = 0

Row | SMILES | activity coefficient
1 | ClCCl [dichloromethane] + CCCCn1cc[n+](C)c1.[O-][Cl+3]([O-])([O-])[O-] | 0.84 ± 0.09
2 | CC(C)O [propan-2-ol] + CCCCn1cc[n+](C)c1.[O-][Cl+3]([O-])([O-])[O-] | 2.27 ± 0.24
3 | CCOC(C)=O [ethyl acetate] + CCCCn1cc[n+](C)c1.[O-][Cl+3]([O-])([O-])[O-] | 2.22 ± 0.23
4 | ClC(Cl)(Cl)Cl [tetrachloromethane] + CCCCn1cc[n+](C)c1.[O-][Cl+3]([O-])([O-])[O-] | 3.61 ± 0.38
5 | CCCCCCC [heptane] + CCCCn1cc[n+](C)c1.[O-][Cl+3]([O-])([O-])[O-] | 85.9 ± 9.1
6 | CC(C)=O [acetone] + CCCCn1cc[n+](C)c1.[O-][Cl+3]([O-])([O-])[O-] | 0.84 ± 0.09
7 | C1CCCCC1 [cyclohexane] + CCCCn1cc[n+](C)c1.[O-][Cl+3]([O-])([O-])[O-] | 34.5 ± 3.6
8 | C1CCOC1 [tetrahydrofuran] + CCCCn1cc[n+](C)c1.[O-][Cl+3]([O-])([O-])[O-] | 1.5 ± 0.16
9 | CCCCCCCCCC [decane] + CCCCn1cc[n+](C)c1.[O-][Cl+3]([O-])([O-])[O-] | 226 ± 24
10 | CCCCCCCCC [nonane] + CCCCn1cc[n+](C)c1.[O-][Cl+3]([O-])([O-])[O-] | 151 ± 16
11 | ClC(Cl)Cl [trichloromethane] + CCCCn1cc[n+](C)c1.[O-][Cl+3]([O-])([O-])[O-] | 0.78 ± 0.08
12 | CO [methanol] + CCCCn1cc[n+](C)c1.[O-][Cl+3]([O-])([O-])[O-] | 1.07 ± 0.11
13 | C1=CCCCC1 [cyclohexene] + CCCCn1cc[n+](C)c1.[O-][Cl+3]([O-])([O-])[O-] | 15.1 ± 1.6
14 | CC(C)CC(C)(C)C [2,2,4-trimethylpentane] + CCCCn1cc[n+](C)c1.[O-][Cl+3]([O-])([O-])[O-] | 100 ± 11
15 | CCCCCC [hexane] + CCCCn1cc[n+](C)c1.[O-][Cl+3]([O-])([O-])[O-] | 81.7 ± 8.6
16 | CC1CCCCC1 [methylcyclohexane] + CCCCn1cc[n+](C)c1.[O-][Cl+3]([O-])([O-])[O-] | 46.5 ± 4.9
17 | CC#N [acetonitrile] + CCCCn1cc[n+](C)c1.[O-][Cl+3]([O-])([O-])[O-] | 0.61 ± 0.07
18 | CCCCCCCC [octane] + CCCCn1cc[n+](C)c1.[O-][Cl+3]([O-])([O-])[O-] | 109 ± 12
19 | c1ccccc1 [benzene] + CCCCn1cc[n+](C)c1.[O-][Cl+3]([O-])([O-])[O-] | 1.78 ± 0.19
20 | CCO [ethanol] + CCCCn1cc[n+](C)c1.[O-][Cl+3]([O-])([O-])[O-] | 1.67 ± 0.17

Same assay, conditions: 313.15 K; 101.33 kPa; Liquid; Chromatography; x1 = 0

Row | SMILES | activity coefficient
21 | ClCCl [dichloromethane] + CCCCn1cc[n+](C)c1.[O-][Cl+3]([O-])([O-])[O-] | 0.91 ± 0.09
22 | CC(C)O [propan-2-ol] + CCCCn1cc[n+](C)c1.[O-][Cl+3]([O-])([O-])[O-] | 2.18 ± 0.23
23 | CCOC(C)=O [ethyl acetate] + CCCCn1cc[n+](C)c1.[O-][Cl+3]([O-])([O-])[O-] | 2.31 ± 0.24
24 | ClC(Cl)(Cl)Cl [tetrachloromethane] + CCCCn1cc[n+](C)c1.[O-][Cl+3]([O-])([O-])[O-] | 3.93 ± 0.41
25 | CCCCCCC [heptane] + CCCCn1cc[n+](C)c1.[O-][Cl+3]([O-])([O-])[O-] | 91.6 ± 9.7
26 | CC(C)=O [acetone] + CCCCn1cc[n+](C)c1.[O-][Cl+3]([O-])([O-])[O-] | 0.91 ± 0.09
27 | C1CCCCC1 [cyclohexane] + CCCCn1cc[n+](C)c1.[O-][Cl+3]([O-])([O-])[O-] | 34.6 ± 3.6
28 | C1CCOC1 [tetrahydrofuran] + CCCCn1cc[n+](C)c1.[O-][Cl+3]([O-])([O-])[O-] | 1.57 ± 0.16
29 | CCCCCCCCCC [decane] + CCCCn1cc[n+](C)c1.[O-][Cl+3]([O-])([O-])[O-] | 219 ± 23
30 | CCCCCCCCC [nonane] + CCCCn1cc[n+](C)c1.[O-][Cl+3]([O-])([O-])[O-] | 142 ± 15
31 | Cc1ccccc1 [toluene] + CCCCn1cc[n+](C)c1.[O-][Cl+3]([O-])([O-])[O-] | 2.96 ± 0.31
32 | ClC(Cl)Cl [trichloromethane] + CCCCn1cc[n+](C)c1.[O-][Cl+3]([O-])([O-])[O-] | 0.87 ± 0.09
33 | CCC(C)O (centres undefined) [butan-2-ol] + CCCCn1cc[n+](C)c1.[O-][Cl+3]([O-])([O-])[O-] | 2.91 ± 0.31
34 | CO [methanol] + CCCCn1cc[n+](C)c1.[O-][Cl+3]([O-])([O-])[O-] | 1.06 ± 0.11
35 | C1=CCCCC1 [cyclohexene] + CCCCn1cc[n+](C)c1.[O-][Cl+3]([O-])([O-])[O-] | 14.8 ± 1.6
36 | CC(C)CC(C)(C)C [2,2,4-trimethylpentane] + CCCCn1cc[n+](C)c1.[O-][Cl+3]([O-])([O-])[O-] | 102 ± 11
37 | CCCCCC [hexane] + CCCCn1cc[n+](C)c1.[O-][Cl+3]([O-])([O-])[O-] | 89.2 ± 9.4
38 | CC1CCCCC1 [methylcyclohexane] + CCCCn1cc[n+](C)c1.[O-][Cl+3]([O-])([O-])[O-] | 46.7 ± 4.9
39 | CC#N [acetonitrile] + CCCCn1cc[n+](C)c1.[O-][Cl+3]([O-])([O-])[O-] | 0.62 ± 0.07
40 | CCCCCCCC [octane] + CCCCn1cc[n+](C)c1.[O-][Cl+3]([O-])([O-])[O-] | 111 ± 12
41 | c1ccccc1 [benzene] + CCCCn1cc[n+](C)c1.[O-][Cl+3]([O-])([O-])[O-] | 1.82 ± 0.19
42 | CCO [ethanol] + CCCCn1cc[n+](C)c1.[O-][Cl+3]([O-])([O-])[O-] | 1.59 ± 0.17

Same assay, conditions: 323.15 K; 101.33 kPa; Liquid; Chromatography; x1 = 0

Row | SMILES | activity coefficient
43 | ClCCl [dichloromethane] + CCCCn1cc[n+](C)c1.[O-][Cl+3]([O-])([O-])[O-] | 0.96 ± 0.1
44 | CC(C)O [propan-2-ol] + CCCCn1cc[n+](C)c1.[O-][Cl+3]([O-])([O-])[O-] | 2.06 ± 0.22
